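1) Cells in 96-well plates. 2) Compound, 48 h, 5 concentrations. 3) Linear interpolation between surrounding doses. 4) Unreached endpoint = highest concentration. TGI: total growth inhibition.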
Columns and labels:
Assay in all cases: inhibition of tumour cell growth, NCI panel, 48 h
EKVX NSCLC = system: EKVX NSCLC
A549 NSCLC = system: A549 NSCLC
CAKI-1 renal = system: CAKI-1 renal
SNB-75 CNS = system: SNB-75 CNS
PC-3 prostate = system: PC-3 prostate
OVCAR-4 ovarian = system: OVCAR-4 ovarian
HCT-15 colon = system: HCT-15 colon
MCF7 breast = system: MCF7 breast
786-0 renal = system: 786-0 renal
HCT-116 colon = system: HCT-116 colon
MDA-MB-231 breast = system: MDA-MB-231 breast
HL-60(TB) leukemia = system: HL-60(TB) leukemia
CCRF-CEM leukemia = system: CCRF-CEM leukemia
RPMI-8226 leukemia = system: RPMI-8226 leukemia
IGROV1 ovarian = system: IGROV1 ovarian
OVCAR-5 ovarian = system: OVCAR-5 ovarian
HT29 colon = system: HT29 colon
NCI/ADR-RES ovarian = system: NCI/ADR-RES ovarian
MDA-N = system: MDA-N
T-47D breast = system: T-47D breast
SK-MEL-28 melanoma = system: SK-MEL-28 melanoma
DU-145 prostate = system: DU-145 prostate
LOX IMVI melanoma = system: LOX IMVI melanoma
NCI-H522 lung = system: NCI-H522 lung
MALME-3M melanoma = system: MALME-3M melanoma
MDA-MB-435 = system: MDA-MB-435
NCI-H460 lung = system: NCI-H460 lung
HS 578T breast = system: HS 578T breast
K-562 leukemia = system: K-562 leukemia
SNB-19 CNS = system: SNB-19 CNS
UO-31 renal = system: UO-31 renal
BT-549 breast = system: BT-549 breast
SK-MEL-2 melanoma = system: SK-MEL-2 melanoma
SF-539 CNS = system: SF-539 CNS
ACHN renal = system: ACHN renal
HOP-92 NSCLC = system: HOP-92 NSCLC
SF-268 CNS = system: SF-268 CNS
MOLT-4 leukemia = system: MOLT-4 leukemia
SN12C renal = system: SN12C renal
HOP-62 NSCLC = system: HOP-62 NSCLC
UACC-257 melanoma = system: UACC-257 melanoma
M14 melanoma = system: M14 melanoma
KM12 colon = system: KM12 colon
OVCAR-8 ovarian = system: OVCAR-8 ovarian
SW-620 colon = system: SW-620 colon
NCI-H23 lung = system: NCI-H23 lung
RXF 393 renal = system: RXF 393 renal
NCI-H226 lung = system: NCI-H226 lung
A498 renal = system: A498 renal
SR leukemia = system: SR leukemia
COLO 205 colon = system: COLO 205 colon
OVCAR-3 ovarian = system: OVCAR-3 ovarian
SK-OV-3 ovarian = system: SK-OV-3 ovarian
SK-MEL-5 melanoma = system: SK-MEL-5 melanoma
U251 CNS = system: U251 CNS
TK-10 renal = system: TK-10 renal
SF-295 CNS = system: SF-295 CNS
HCC-2998 colon = system: HCC-2998 colon
UACC-62 melanoma = system: UACC-62 melanoma

O=c1[nH]c2nnc(COc3ccc(Cl)cc3Cl)n2nc1Cc1ccccc1 was tested, and the TGI (EKVX NSCLC) was > 100 µM, the TGI (A549 NSCLC) was > 100 µM and the TGI (CAKI-1 renal) was > 100 µM. The TGI (SNB-75 CNS) was 38.8 µM, the TGI (PC-3 prostate) was > 100 µM and the TGI (OVCAR-4 ovarian) was > 100 µM. The TGI (HCT-15 colon) was > 100 µM, the TGI (MCF7 breast) was > 100 µM and the TGI (786-0 renal) was 43.8 µM. The TGI (HCT-116 colon) was > 100 µM, the TGI (MDA-MB-231 breast) was > 100 µM and the TGI (HL-60(TB) leukemia) was > 100 µM. The TGI (CCRF-CEM leukemia) was > 100 µM, the TGI (RPMI-8226 leukemia) was > 100 µM and the TGI (IGROV1 ovarian) was 76.6 µM. The TGI (OVCAR-5 ovarian) was > 100 µM, the TGI (HT29 colon) was > 100 µM and the TGI (NCI/ADR-RES ovarian) was > 100 µM. The TGI (MDA-N) was > 100 µM, the TGI (T-47D breast) was > 100 µM and the TGI (SK-MEL-28 melanoma) was > 100 µM. The TGI (DU-145 prostate) was > 100 µM, the TGI (LOX IMVI melanoma) was > 100 µM and the TGI (NCI-H522 lung) was > 100 µM. The TGI (MALME-3M melanoma) was > 100 µM, the TGI (MDA-MB-435) was > 100 µM and the TGI (NCI-H460 lung) was > 100 µM. For the same molecule, the TGI (HS 578T breast) was > 100 µM, the TGI (K-562 leukemia) was > 100 µM and the TGI (SNB-19 CNS) was > 100 µM. For the same molecule, the TGI (UO-31 renal) was > 100 µM, the TGI (BT-549 breast) was > 100 µM and the TGI (SK-MEL-2 melanoma) was > 100 µM. The TGI (SF-539 CNS) was 39.8 µM, the TGI (ACHN renal) was > 100 µM and the TGI (HOP-92 NSCLC) was 69.5 µM. For the same molecule, the TGI (SF-268 CNS) was > 100 µM, the TGI (MOLT-4 leukemia) was > 100 µM and the TGI (SN12C renal) was > 100 µM. The TGI (HOP-62 NSCLC) was > 100 µM, the TGI (UACC-257 melanoma) was > 100 µM and the TGI (M14 melanoma) was > 100 µM. For the same molecule, the TGI (KM12 colon) was > 100 µM, the TGI (OVCAR-8 ovarian) was 53.9 µM and the TGI (SW-620 colon) was > 100 µM. The TGI (NCI-H23 lung) was > 100 µM, the TGI (RXF 393 renal) was 44.6 µM and the TGI (NCI-H226 lung) was 67.5 µM. The TGI (A498 renal) was 82 µM, the TGI (SR leukemia) was > 100 µM and the TGI (COLO 205 colon) was > 100 µM. For the same molecule, the TGI (OVCAR-3 ovarian) was 74.3 µM, the TGI (SK-OV-3 ovarian) was 58.8 µM and the TGI (SK-MEL-5 melanoma) was > 100 µM. The TGI (U251 CNS) was 53.1 µM, the TGI (TK-10 renal) was 96.5 µM and the TGI (SF-295 CNS) was > 100 µM.

O=C(CC(=O)N1N=C(N2CCCCC2)CC1c1ccccc1)Nc1ccccc1 (stereo not drawn) was tested, and the TGI (EKVX NSCLC) was > 100 µM, the TGI (A549 NSCLC) was > 100 µM and the TGI (CAKI-1 renal) was > 100 µM. For the same molecule, the TGI (SNB-75 CNS) was > 100 µM, the TGI (PC-3 prostate) was > 100 µM and the TGI (OVCAR-4 ovarian) was > 100 µM. The TGI (HCT-15 colon) was > 100 µM, the TGI (MCF7 breast) was > 100 µM and the TGI (786-0 renal) was > 100 µM. For the same molecule, the TGI (HCT-116 colon) was > 100 µM, the TGI (MDA-MB-231 breast) was > 100 µM and the TGI (HL-60(TB) leukemia) was > 100 µM. The TGI (CCRF-CEM leukemia) was > 100 µM, the TGI (IGROV1 ovarian) was > 100 µM and the TGI (OVCAR-5 ovarian) was > 100 µM. For the same molecule, the TGI (HT29 colon) was > 100 µM, the TGI (NCI/ADR-RES ovarian) was > 100 µM and the TGI (MDA-N) was > 100 µM. For the same molecule, the TGI (T-47D breast) was > 100 µM, the TGI (SK-MEL-28 melanoma) was > 100 µM and the TGI (DU-145 prostate) was > 100 µM. For the same molecule, the TGI (LOX IMVI melanoma) was > 100 µM, the TGI (NCI-H522 lung) was > 100 µM and the TGI (MALME-3M melanoma) was > 100 µM. The TGI (MDA-MB-435) was > 100 µM, the TGI (NCI-H460 lung) was > 100 µM and the TGI (HS 578T breast) was > 100 µM. For the same molecule, the TGI (SNB-19 CNS) was > 100 µM, the TGI (UO-31 renal) was > 100 µM and the TGI (BT-549 breast) was > 100 µM. The TGI (SK-MEL-2 melanoma) was > 100 µM, the TGI (SF-539 CNS) was > 100 µM and the TGI (HCC-2998 colon) was > 100 µM. For the same molecule, the TGI (ACHN renal) was > 100 µM, the TGI (HOP-92 NSCLC) was > 100 µM and the TGI (SF-268 CNS) was > 100 µM. The TGI (MOLT-4 leukemia) was > 100 µM, the TGI (SN12C renal) was > 100 µM and the TGI (HOP-62 NSCLC) was > 100 µM. For the same molecule, the TGI (UACC-257 melanoma) was > 100 µM, the TGI (M14 melanoma) was > 100 µM and the TGI (KM12 colon) was > 100 µM. The TGI (OVCAR-8 ovarian) was > 100 µM, the TGI (SW-620 colon) was > 100 µM and the TGI (NCI-H23 lung) was > 100 µM. The TGI (RXF 393 renal) was > 100 µM, the TGI (NCI-H226 lung) was > 100 µM and the TGI (A498 renal) was > 100 µM. The TGI (SR leukemia) was > 100 µM, the TGI (COLO 205 colon) was > 100 µM and the TGI (OVCAR-3 ovarian) was > 100 µM. For the same molecule, the TGI (SK-MEL-5 melanoma) was > 100 µM, the TGI (UACC-62 melanoma) was > 100 µM and the TGI (U251 CNS) was > 100 µM. For the same molecule, the TGI (TK-10 renal) was > 100 µM and the TGI (SF-295 CNS) was > 100 µM.

Reference: PubChem BioAssay (NCI)
